Results on two compounds are retold here after article PMC8245078, “Development of novel benzofuran-isatin conjugates as potential antiproliferative agents with apoptosis inducing mechanism in Colon cancer” (Journal of Enzyme Inhibition and Medicinal Chemistry, 2021).

The test system of data set [1] is human skin fibroblast (HFF-1) normal cells. Description: MTT cell viability assay on normal cells. The data set is classed as cell-based. The conditions noted are these: HFF-1, incubation for 24 h. How it is done: Furthermore, selective cytotoxicity of compounds 5a and 5d was studied on human skin fibroblast (HFF-1) normal cells. […]
each well, and plates were incubated for 10 minutes at room temperature. After staining, unbound dye was removed by washing five times with 1 % acetic acid and the plates were air dried. Bound stain was subsequently solubilized with 10 mM trizma base, and the absorbance was read on an automated plate reader at a wavelength of 515 nm. For suspension cells, the methodology was the same except that the assay was terminated by fixing settled cells at the bottom of the wells by gently adding 50 μL of 80 % TCA (final concentration, 16 % TCA).
Using the seven absorbance measurements [time zero, (Tz), control growth, (C), and test growth in the presence of drug at the five concentration levels (Ti)], the percentage growth was calculated at each of the drug concentrations levels. Percentage growth inhibition was calculated […]
Three dose response parameters were calculated for each experimental agent. […] The drug concentration resulting in total growth inhibition (TGI) was calculated from Ti = Tz. […]
The cytotoxicity effect of compounds on the colorectal cancer cell lines, SW620 and HT29 in addition to the normal human fibroblasts was measured by MTT (3-(4, 5-dimethylthiazol-2-yl)-2,5-diphenyltetrazolium bromide) (Sigma-Aldrich, St. Louis, MO, USA) as previously described. […]
For orientation: Tetrazolium assays rely on reduction of a dye to a coloured formazan, in cell work by metabolically active cells.

For the next data set, the system named is SK-MEL-2. The data set is classed as cell-based. The conditions noted are these: SK-MEL-2, five-dose test.
The test system of another data set is RXF 393. The data set is classed as cell-based, human. The conditions noted are these: RXF 393, five-dose test.
The next data set has as its system PC-3. The data set is classed as cell-based. The following applies: PC-3, five-dose test.
In a further data set the test system is Colon Cancer subpanel. The data set is classed as cell-based, human.
The subject of the next data set is KM12. Type of data set: cell-based. The conditions noted are these: KM12, five-dose test.
The next data set concerns SK-MEL-5. Type of data set: cell-based. The following applies: Homo sapiens; SK-MEL-5, five-dose test.
Another data set relates to M14. The data set is classed as cell-based. The conditions noted are these: M14, five-dose test.
For another data set, the system named is SF-539. The data set is classed as cell-based, human. The conditions noted are these: SF-539, five-dose test.
Another data set relates to LOX IMVI. The data set is classed as cell-based. The conditions noted are these: five-dose test.
The test system of the next data set is K-562. Type of data set: cell-based. The following applies: K-562, five-dose test.
The next data set deals with Ovarian Cancer subpanel. The data set is classed as cell-based, human.
Another data set concerns BT-549. Type of data set: cell-based. The following applies: BT-549, five-dose test.
Another data set relates to Breast Cancer subpanel. Type of data set: cell-based, human.
In a further data set the test system is SK-OV-3. Type of data set: cell-based, human. The conditions noted are these: SK-OV-3, five-dose test.
Setting [2] is: Homo sapiens, read-out: LC50 (the source's name).

Turning to `Cc1c(C(=O)N/N=C2\C(=O)Nc3ccccc32)oc2ccccc12` [Compound 5a], in data set [1], the “effect on fibroblast normal cell viability” value is reported as “little effect”.
As for `COc1ccc2c(c1)/C(=N/NC(=O)c1oc3ccccc3c1C)C(=O)N2` [Compound 5d], the GI50 with SK-MEL-2 (Homo sapiens) turned out to be 2.56 µM; with RXF 393 (Homo sapiens), 1.79 µM; with Colon Cancer subpanel (Homo sapiens, Colon Cancer subpanel, read-out: MG-MID (GI50 average of the subpanel)) it was 1.92 µM; with SF-539 (Homo sapiens), 1.66 µM; with LOX IMVI (Homo sapiens), 3.16 µM; with Ovarian Cancer subpanel (Homo sapiens, Ovarian Cancer subpanel, read-out: MG-MID (GI50 average of the subpanel)) it was 2.29 µM. Also, the 50% growth inhibitory concentration (GI50) in the data set on BT-549 (Homo sapiens) amounted to 5.38 µM; with Breast Cancer subpanel (Homo sapiens, Breast Cancer subpanel, read-out: MG-MID (GI50 average of the subpanel)), 2.83 µM; in the data set on SK-OV-3 (Homo sapiens), 1.82 µM. In the data set with SK-MEL-2 (Homo sapiens), this compound came in with an LC50 of 54.7 µM. For the same compound, the TGI in the data set on SK-MEL-2 is listed as 6.62 µM; in the data set with RXF 393, 3.70 µM; with PC-3, more than 100 µM; with KM12, more than 100 µM; in the data set on M14 it was more than 100 µM; in the data set on SF-539, 3.16 µM. Also, the TGI in the data set with LOX IMVI is more than 100 µM; in the data set with K-562, more than 100 µM; in the data set with BT-549, 33.7 µM; with SK-OV-3 it was 3.83 µM. In addition, the CC50 in the data set on PC-3 (setting [2]) is more than 100 µM; in the data set on KM12 (setting [2]), more than 100 µM; in the data set with M14 (setting [2]), more than 100 µM; in the data set with LOX IMVI (setting [2]), more than 100 µM; in the data set on K-562 (Homo sapiens, K562, read-out: LC50 (the source's name)), more than 100 µM. Also, the Selectivity index with Colon Cancer subpanel (full panel MID / subpanel MID, Colon Cancer) was 1.30; in the data set on Ovarian Cancer subpanel (full panel MID / subpanel MID, Ovarian Cancer) it was 1.09; with Breast Cancer subpanel (full panel MID / subpanel MID, Breast Cancer), 0.88. Besides, the “effect on fibroblast normal cell viability” value in data set [1] is recorded as “little effect”. Moreover, in the data set with SK-MEL-5, the LC50 (50% lethal concentration) is more than 100 µM. The same compound showed an LC50 (concentration causing 50% net cell kill) with BT-549 (Homo sapiens) of more than 100 µM.

Usually GI50 stands for the concentration giving 50% growth inhibition. Broadly, the LC50 is the concentration that kills 50% of the test population. Read a low LC50 as a more lethal substance. In general, TGI refers to the concentration at which net growth stops.
